Test results reported in paper PMC4076210, “Discovery of Novel AKT Inhibitors with Enhanced Anti-Tumor Effects in Combination with the MEK Inhibitor” (PLoS ONE, 2014).
Like-named read-outs stand apart in the source and are kept apart here.

Tests used:
[1] = target: T1, mTOR(h) (Homo sapiens, UniProt P42345); experiment: Kinase panel; format: biochemical
T1 construct: purchased Millipore KinaseProfiler

[2] = target: T2, Arg(h) (Homo sapiens, UniProt P42684); experiment: Kinase panel; format: biochemical
T2 construct: purchased Millipore KinaseProfiler

[3] = target: T3, PAK4(h) (Homo sapiens, UniProt O96013); experiment: Kinase panel; format: biochemical
T3 construct: purchased Millipore KinaseProfiler

[4] = target: T4, BRK(h) (Homo sapiens, UniProt Q13882); experiment: Kinase panel; format: biochemical
T4 construct: purchased Millipore KinaseProfiler

[5] = target: T5, SIK(h) (Homo sapiens, UniProt P57059); experiment: Kinase panel; format: biochemical
T5 construct: purchased Millipore KinaseProfiler

[6] = target: P70S6K (Homo sapiens, UniProt P23443); experiment: Kinase IC50 assay; format: biochemical
[7] = target: ROCK; experiment: Kinase IC50 assay; format: biochemical
[8] = target: T6, cKit(D816V)(h) (Homo sapiens, UniProt P10721, D816V); experiment: Kinase panel; format: biochemical
T6 construct: purchased Millipore KinaseProfiler

[9] = Blood glucose after single oral dose; format: in vivo, mouse
Procedure: Blood glucose levels were determined from tail vein puncture in mice using a handheld glucometer. Plasma Insulin levels were using the Rat Ultrasensitive Insulin ELISA kit (Crystal Chem Inc).

[10] = target: T7, HIPK2(h) (Homo sapiens, UniProt Q9H2X6); experiment: Kinase panel; format: biochemical
T7 construct: purchased Millipore KinaseProfiler

[11] = target: T8, ACK1(h) (Homo sapiens, UniProt Q07912); experiment: Kinase panel; format: biochemical
T8 construct: purchased Millipore KinaseProfiler

[12] = target: T9, CDK3/cyclinE(h) (Homo sapiens, UniProt Q00526); experiment: Kinase panel; format: biochemical
T9 construct: purchased Millipore KinaseProfiler

[13] = target: T10, DAPK1(h) (Homo sapiens, UniProt P53355); experiment: Kinase panel; format: biochemical
T10 construct: purchased Millipore KinaseProfiler

[14] = target: T11, PAK5(h) (Homo sapiens, UniProt Q9P286); experiment: Kinase panel; format: biochemical
T11 construct: purchased Millipore KinaseProfiler

[15] = target: T12, TBK1(h) (Homo sapiens, UniProt Q9UHD2); experiment: Kinase panel; format: biochemical
T12 construct: purchased Millipore KinaseProfiler
T12 sequence (Q9UHD2 1-729): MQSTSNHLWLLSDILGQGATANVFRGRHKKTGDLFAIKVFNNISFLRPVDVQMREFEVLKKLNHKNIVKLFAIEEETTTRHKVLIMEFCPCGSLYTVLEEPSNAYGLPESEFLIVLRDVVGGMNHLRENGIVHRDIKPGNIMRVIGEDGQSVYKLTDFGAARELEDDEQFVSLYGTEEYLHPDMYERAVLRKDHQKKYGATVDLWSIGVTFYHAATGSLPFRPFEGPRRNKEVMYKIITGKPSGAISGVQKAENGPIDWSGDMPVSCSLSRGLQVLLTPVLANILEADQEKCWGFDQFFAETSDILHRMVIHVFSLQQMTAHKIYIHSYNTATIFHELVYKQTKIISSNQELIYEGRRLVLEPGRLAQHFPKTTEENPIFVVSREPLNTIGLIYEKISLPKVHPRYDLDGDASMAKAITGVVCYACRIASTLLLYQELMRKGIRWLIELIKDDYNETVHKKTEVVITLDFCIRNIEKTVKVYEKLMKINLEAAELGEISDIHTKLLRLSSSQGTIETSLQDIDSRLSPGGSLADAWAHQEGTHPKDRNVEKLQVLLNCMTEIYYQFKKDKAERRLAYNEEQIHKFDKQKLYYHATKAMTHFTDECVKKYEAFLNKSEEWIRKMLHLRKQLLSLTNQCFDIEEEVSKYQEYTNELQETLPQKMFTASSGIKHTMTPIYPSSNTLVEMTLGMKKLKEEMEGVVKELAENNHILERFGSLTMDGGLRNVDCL

[16] = target: T13, PDGFRβ(h) (Homo sapiens, UniProt P09619); experiment: Kinase panel; format: biochemical
T13 construct: purchased Millipore KinaseProfiler

[17] = target: T14, SAPK2b(h) (Homo sapiens, UniProt Q15759); experiment: Kinase panel; format: biochemical
T14 construct: purchased Millipore KinaseProfiler

[18] = target: T15, CDK6/cyclinD3(h) (Homo sapiens, UniProt Q00534); experiment: Kinase panel; format: biochemical
T15 construct: purchased Millipore KinaseProfiler

[19] = target: T16, Ros(h) (Homo sapiens, UniProt P08922); experiment: Kinase panel; format: biochemical
T16 construct: purchased Millipore KinaseProfiler

[20] = target: T17, mTOR/FKBP12(h) (Homo sapiens, UniProt P42345); experiment: Kinase panel; format: biochemical
T17 construct: purchased Millipore KinaseProfiler

[21] = target: T18, TLK2(h) (Homo sapiens, UniProt Q86UE8); experiment: Kinase panel; format: biochemical
T18 construct: purchased Millipore KinaseProfiler

[22] = target: T19, WNK2(h) (Homo sapiens, UniProt Q9Y3S1); experiment: Kinase panel; format: biochemical
T19 construct: purchased Millipore KinaseProfiler

[23] = tested on: CK1(y); experiment: Kinase panel; format: biochemical, yeast

T6 sequence (P10721 26-976 D816V): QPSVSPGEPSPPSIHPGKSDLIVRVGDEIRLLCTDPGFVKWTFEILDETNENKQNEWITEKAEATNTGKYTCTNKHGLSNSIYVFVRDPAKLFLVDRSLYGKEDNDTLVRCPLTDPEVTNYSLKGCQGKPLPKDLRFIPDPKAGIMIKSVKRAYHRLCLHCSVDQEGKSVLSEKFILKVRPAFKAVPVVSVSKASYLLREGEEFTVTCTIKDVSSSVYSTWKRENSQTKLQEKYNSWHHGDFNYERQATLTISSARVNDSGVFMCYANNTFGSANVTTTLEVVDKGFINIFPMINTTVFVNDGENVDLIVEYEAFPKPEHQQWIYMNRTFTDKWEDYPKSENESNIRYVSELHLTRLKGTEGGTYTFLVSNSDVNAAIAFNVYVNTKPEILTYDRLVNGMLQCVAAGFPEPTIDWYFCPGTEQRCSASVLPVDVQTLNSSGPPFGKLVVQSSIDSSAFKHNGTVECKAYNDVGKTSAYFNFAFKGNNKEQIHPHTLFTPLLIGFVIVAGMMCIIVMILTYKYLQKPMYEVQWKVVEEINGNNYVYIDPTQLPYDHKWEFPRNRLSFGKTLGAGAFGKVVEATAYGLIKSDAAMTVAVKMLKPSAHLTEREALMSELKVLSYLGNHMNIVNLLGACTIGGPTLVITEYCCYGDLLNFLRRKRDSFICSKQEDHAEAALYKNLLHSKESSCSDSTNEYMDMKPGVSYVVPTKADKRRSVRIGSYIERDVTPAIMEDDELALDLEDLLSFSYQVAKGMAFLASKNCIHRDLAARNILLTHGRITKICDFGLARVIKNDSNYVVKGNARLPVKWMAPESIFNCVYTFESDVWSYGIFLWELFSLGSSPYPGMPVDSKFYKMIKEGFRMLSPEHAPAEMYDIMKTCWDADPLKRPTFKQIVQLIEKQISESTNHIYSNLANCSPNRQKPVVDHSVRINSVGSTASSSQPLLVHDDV
T10 sequence (P53355 whole entry): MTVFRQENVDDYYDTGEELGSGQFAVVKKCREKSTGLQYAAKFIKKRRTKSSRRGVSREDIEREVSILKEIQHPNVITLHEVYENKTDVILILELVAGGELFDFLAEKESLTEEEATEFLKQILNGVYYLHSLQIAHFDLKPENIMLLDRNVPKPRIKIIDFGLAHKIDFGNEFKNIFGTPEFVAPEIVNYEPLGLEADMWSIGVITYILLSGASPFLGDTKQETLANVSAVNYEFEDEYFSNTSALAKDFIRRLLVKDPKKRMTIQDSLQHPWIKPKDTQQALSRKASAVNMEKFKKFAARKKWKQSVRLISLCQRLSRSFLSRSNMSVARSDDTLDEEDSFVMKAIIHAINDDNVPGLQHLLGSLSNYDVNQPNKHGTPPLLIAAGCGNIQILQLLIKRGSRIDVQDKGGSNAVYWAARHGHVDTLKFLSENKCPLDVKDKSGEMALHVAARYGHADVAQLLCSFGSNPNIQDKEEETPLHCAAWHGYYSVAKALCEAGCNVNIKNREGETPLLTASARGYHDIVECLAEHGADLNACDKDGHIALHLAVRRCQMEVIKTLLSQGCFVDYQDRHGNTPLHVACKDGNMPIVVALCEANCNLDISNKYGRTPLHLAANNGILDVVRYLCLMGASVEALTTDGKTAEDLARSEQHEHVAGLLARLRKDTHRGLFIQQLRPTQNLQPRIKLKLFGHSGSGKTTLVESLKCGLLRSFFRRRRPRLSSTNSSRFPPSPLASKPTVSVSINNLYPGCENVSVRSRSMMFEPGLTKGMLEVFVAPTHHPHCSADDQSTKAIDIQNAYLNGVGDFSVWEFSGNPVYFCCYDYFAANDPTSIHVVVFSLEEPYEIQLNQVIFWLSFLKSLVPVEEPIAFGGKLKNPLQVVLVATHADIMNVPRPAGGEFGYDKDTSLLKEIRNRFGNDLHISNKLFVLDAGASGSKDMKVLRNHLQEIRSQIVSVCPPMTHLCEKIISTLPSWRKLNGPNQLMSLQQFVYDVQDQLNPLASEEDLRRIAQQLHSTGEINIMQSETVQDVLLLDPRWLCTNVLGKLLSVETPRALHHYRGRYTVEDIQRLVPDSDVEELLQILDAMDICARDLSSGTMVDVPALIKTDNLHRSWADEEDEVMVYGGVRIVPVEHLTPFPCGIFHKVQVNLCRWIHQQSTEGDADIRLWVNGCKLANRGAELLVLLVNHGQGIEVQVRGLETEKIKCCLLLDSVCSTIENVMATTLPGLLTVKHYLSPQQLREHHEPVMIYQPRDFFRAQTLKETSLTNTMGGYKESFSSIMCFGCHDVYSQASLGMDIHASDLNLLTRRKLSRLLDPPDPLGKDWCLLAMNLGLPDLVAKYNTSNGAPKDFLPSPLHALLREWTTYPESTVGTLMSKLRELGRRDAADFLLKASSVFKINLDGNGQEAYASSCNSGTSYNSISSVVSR
T19 sequence (Q9Y3S1 whole entry): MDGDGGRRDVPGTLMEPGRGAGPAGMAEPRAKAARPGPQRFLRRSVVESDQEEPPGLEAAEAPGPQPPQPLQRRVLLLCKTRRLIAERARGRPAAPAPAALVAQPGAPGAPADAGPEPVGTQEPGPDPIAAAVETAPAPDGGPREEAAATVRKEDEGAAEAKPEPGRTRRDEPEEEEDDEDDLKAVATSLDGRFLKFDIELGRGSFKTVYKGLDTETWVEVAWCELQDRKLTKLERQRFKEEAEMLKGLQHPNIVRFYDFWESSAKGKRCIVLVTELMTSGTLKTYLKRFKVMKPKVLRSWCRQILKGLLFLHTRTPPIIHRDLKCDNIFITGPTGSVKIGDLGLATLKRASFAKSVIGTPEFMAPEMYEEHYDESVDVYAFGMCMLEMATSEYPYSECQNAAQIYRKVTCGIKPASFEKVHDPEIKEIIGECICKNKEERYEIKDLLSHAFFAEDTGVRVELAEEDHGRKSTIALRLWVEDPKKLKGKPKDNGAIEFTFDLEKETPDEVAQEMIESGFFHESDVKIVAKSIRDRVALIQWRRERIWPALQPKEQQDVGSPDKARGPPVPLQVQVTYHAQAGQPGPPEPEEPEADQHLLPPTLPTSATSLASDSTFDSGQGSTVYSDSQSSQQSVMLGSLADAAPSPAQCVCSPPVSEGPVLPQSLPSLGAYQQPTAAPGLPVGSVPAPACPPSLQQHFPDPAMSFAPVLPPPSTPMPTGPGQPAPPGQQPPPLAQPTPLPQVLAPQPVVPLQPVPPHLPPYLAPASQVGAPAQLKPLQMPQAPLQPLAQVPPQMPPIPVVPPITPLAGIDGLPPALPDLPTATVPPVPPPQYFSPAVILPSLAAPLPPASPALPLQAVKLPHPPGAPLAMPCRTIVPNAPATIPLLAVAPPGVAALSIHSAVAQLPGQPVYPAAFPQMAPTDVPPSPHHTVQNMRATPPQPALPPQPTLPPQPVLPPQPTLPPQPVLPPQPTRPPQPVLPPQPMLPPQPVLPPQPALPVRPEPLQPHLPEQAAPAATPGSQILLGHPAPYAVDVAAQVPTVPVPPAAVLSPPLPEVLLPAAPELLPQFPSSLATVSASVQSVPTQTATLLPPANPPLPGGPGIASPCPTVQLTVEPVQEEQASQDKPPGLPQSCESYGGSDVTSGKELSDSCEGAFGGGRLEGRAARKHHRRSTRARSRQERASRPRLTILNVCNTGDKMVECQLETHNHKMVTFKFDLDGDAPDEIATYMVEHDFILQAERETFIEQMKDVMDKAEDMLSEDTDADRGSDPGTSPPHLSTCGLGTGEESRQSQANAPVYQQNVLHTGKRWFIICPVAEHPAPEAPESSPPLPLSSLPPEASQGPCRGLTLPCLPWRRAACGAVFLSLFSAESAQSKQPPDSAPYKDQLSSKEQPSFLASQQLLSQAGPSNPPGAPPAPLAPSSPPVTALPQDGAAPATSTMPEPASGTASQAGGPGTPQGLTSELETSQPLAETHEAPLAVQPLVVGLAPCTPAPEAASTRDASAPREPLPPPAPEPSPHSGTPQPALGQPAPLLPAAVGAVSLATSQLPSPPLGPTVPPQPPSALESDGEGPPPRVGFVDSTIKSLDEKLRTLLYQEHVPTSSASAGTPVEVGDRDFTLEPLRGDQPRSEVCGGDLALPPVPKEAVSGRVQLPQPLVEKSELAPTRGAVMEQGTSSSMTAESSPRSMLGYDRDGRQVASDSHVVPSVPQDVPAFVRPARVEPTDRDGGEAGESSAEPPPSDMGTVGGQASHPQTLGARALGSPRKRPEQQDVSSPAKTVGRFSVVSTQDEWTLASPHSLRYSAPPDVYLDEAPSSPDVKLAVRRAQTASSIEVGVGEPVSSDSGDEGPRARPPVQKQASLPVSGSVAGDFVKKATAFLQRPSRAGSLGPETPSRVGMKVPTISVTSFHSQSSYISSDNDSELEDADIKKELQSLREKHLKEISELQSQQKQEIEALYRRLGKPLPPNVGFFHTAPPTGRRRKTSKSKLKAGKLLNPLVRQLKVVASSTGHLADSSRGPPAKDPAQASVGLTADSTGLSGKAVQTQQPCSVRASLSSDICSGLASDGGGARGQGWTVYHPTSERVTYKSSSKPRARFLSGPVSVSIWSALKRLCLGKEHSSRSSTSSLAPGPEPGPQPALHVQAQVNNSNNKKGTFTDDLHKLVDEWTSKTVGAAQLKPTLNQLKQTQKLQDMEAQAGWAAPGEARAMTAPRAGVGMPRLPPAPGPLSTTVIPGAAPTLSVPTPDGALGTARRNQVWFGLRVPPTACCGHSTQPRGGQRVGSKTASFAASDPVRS
T14 sequence (Q15759 whole entry): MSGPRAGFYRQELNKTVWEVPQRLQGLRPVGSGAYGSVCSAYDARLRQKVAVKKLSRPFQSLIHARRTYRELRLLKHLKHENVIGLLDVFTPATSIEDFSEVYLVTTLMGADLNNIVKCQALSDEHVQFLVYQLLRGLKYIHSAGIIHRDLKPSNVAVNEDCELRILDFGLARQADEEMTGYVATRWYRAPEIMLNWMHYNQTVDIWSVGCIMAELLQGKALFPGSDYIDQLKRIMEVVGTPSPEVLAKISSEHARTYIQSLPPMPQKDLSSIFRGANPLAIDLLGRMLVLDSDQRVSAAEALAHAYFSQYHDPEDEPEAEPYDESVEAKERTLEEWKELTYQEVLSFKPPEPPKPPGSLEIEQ

`Cn1ncc(Cl)c1-c1cc(C(=O)N[C@H](CN)Cc2cccc(F)c2)sc1Cl` [GSK2110183] showed an inhibition at 0.5 µM [1] of 17%, an inhibition at 10 µM [1] of -9% and an inhibition at 0.5 µM [2] of -3%. The inhibition at 10 µM [2] was -1%, the inhibition at 0.5 µM [3] was -13% and the inhibition at 10 µM [3] was 17%. The inhibition at 0.5 µM [4] was 0%, the inhibition at 10 µM [4] was -2% and the inhibition at 0.5 µM [5] was -6%. It also gave an inhibition at 10 µM [5] of 16%, an IC50 [6] of 251 nM and an IC50 [7] of 100 nM. The inhibition at 0.5 µM [8] was 0%, the inhibition at 10 µM [8] was 9% and the “time for blood glucose to return to normal levels” value ([9]; 100 mg/kg single oral dose) was ≤ 8 h. It also gave a blood glucose level ([9]; 100 mg/kg single oral dose, 2 h post dosing) of 211 mg/dL, an inhibition at 0.5 µM [10] of 25% and an inhibition at 10 µM [10] of 87%. The inhibition at 0.5 µM [11] was 1%, the inhibition at 10 µM [11] was 8% and the inhibition at 0.5 µM [12] was 0%. For the same molecule, the inhibition at 10 µM [12] was 20%, the inhibition at 0.5 µM [13] was 1% and the inhibition at 10 µM [13] was 28%. The inhibition at 0.5 µM [14] was 2%, the inhibition at 10 µM [14] was 49% and the inhibition at 0.5 µM [15] was 1%. The inhibition at 10 µM [15] was 2%, the inhibition at 0.5 µM [16] was 2% and the inhibition at 10 µM [16] was 5%. It also gave an inhibition at 0.5 µM [17] of -8%, an inhibition at 10 µM [17] of -13% and an inhibition at 0.5 µM [18] of 0%. For the same molecule, the inhibition at 10 µM [18] was 5%, the inhibition at 0.5 µM [19] was -10% and the inhibition at 10 µM [19] was -10%. The inhibition at 0.5 µM [20] was 3%, the inhibition at 10 µM [20] was 5% and the inhibition at 0.5 µM [21] was -2%. The inhibition at 10 µM [21] was -1%, the inhibition at 0.5 µM [22] was 1% and the inhibition at 10 µM [22] was 26%. The “% Inhibition” value ([23]; 0.5 µM) was 3% and the “% Inhibition” value ([23]; 10 µM) was 54%.

Work on `Cn1ncc(Cl)c1-c1cc(C(=O)N[C@H](CN)Cc2ccc(F)c(F)c2)oc1Cl` [GSK2141795] yielded an inhibition at 0.5 µM ([1]; 0.5 µM, read-out: % Inhibition) of -16%, an inhibition at 10 µM ([1]; 10 µM, read-out: % Inhibition) of -4% and an inhibition at 0.5 µM ([2]; 0.5 µM, read-out: % Inhibition) of -13%. For the same molecule, the inhibition at 10 µM ([2]; 10 µM, read-out: % Inhibition) was -17%, the inhibition at 0.5 µM ([3]; 0.5 µM, read-out: % Inhibition) was 4% and the inhibition at 10 µM ([3]; 10 µM, read-out: % Inhibition) was 39%. The inhibition at 0.5 µM ([4]; 0.5 µM, read-out: % Inhibition) was -15%, the inhibition at 10 µM ([4]; 10 µM, read-out: % Inhibition) was 25% and the inhibition at 0.5 µM ([5]; 0.5 µM, read-out: % Inhibition) was -4%. For the same molecule, the inhibition at 10 µM ([5]; 10 µM, read-out: % Inhibition) was 64%, the IC50 [6] was 50 nM and the IC50 [7] was 126 nM. The inhibition at 0.5 µM ([8]; 0.5 µM, read-out: % Inhibition) was -17%, the inhibition at 10 µM ([8]; 10 µM, read-out: % Inhibition) was -16% and the blood glucose level ([9]; maximal tolerated dose of 30 mg/kg, daily) was 200 to 300 mg/dL. The “time for glucose to return to normal” value ([9]; single 30 mg/kg dose) was ≤ 8 h, the blood glucose level ([9]; single 30 mg/kg dose, 2 h post dosing) was 200 mg/dL and the inhibition at 0.5 µM ([10]; 0.5 µM, read-out: % Inhibition) was 26%. It also gave an inhibition at 10 µM ([10]; 10 µM, read-out: % Inhibition) of 83%, an inhibition at 0.5 µM ([11]; 0.5 µM, read-out: % Inhibition) of -2% and an inhibition at 10 µM ([11]; 10 µM, read-out: % Inhibition) of 0%. For the same molecule, the inhibition at 0.5 µM ([12]; 0.5 µM, read-out: % Inhibition) was -13%, the inhibition at 10 µM ([12]; 10 µM, read-out: % Inhibition) was 30% and the inhibition at 0.5 µM ([13]; 0.5 µM, read-out: % Inhibition) was 1%. It also gave an inhibition at 10 µM ([13]; 10 µM, read-out: % Inhibition) of 41%, an inhibition at 0.5 µM ([14]; 0.5 µM, read-out: % Inhibition) of 0% and an inhibition at 10 µM ([14]; 10 µM, read-out: % Inhibition) of 40%. The inhibition at 0.5 µM ([15]; 0.5 µM, read-out: % Inhibition) was 1%, the inhibition at 10 µM ([15]; 10 µM, read-out: % Inhibition) was 4% and the inhibition at 0.5 µM ([16]; 0.5 µM, read-out: % Inhibition) was -7%. The inhibition at 10 µM ([16]; 10 µM, read-out: % Inhibition) was -4%, the inhibition at 0.5 µM ([17]; 0.5 µM, read-out: % Inhibition) was -17% and the inhibition at 10 µM ([17]; 10 µM, read-out: % Inhibition) was -9%. The inhibition at 0.5 µM ([18]; 0.5 µM, read-out: % Inhibition) was -12%, the inhibition at 10 µM ([18]; 10 µM, read-out: % Inhibition) was -12% and the inhibition at 0.5 µM ([19]; 0.5 µM, read-out: % Inhibition) was 0%. The inhibition at 10 µM ([19]; 10 µM, read-out: % Inhibition) was 5%, the inhibition at 0.5 µM ([20]; 0.5 µM, read-out: % Inhibition) was -19% and the inhibition at 10 µM ([20]; 10 µM, read-out: % Inhibition) was -21%. The inhibition at 0.5 µM ([21]; 0.5 µM, read-out: % Inhibition) was -11%, the inhibition at 10 µM ([21]; 10 µM, read-out: % Inhibition) was 10% and the inhibition at 0.5 µM ([22]; 0.5 µM, read-out: % Inhibition) was -12%. The inhibition at 10 µM ([22]; 10 µM, read-out: % Inhibition) was 3%, the “% Inhibition” value ([23]; 0.5 µM) was 35% and the “% Inhibition” value ([23]; 10 µM) was 93%.
